Data: patent publication US20250332173A1, “COMPOUNDS AND METHODS FOR MODULATING NUCLEIC ACID SPLICING” (REMIX THERAPEUTICS INC., priority 2021, published 2025)
Like-named read-outs stand apart in the source and are kept apart here.

Tests used:
[1] = system: MYB mRNA; test: RT-qPCR splicing assay, MYB canonical junction (CJ) and alternative junction (AJ) mRNA; format: cell-based, human; conditions: Homo sapiens; for AC50: increase in MYB alternative junction (AJ) mRNA, read-out: MYB AJ AC50
Summary of the method: (§1)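 A673 or K562 cells were treated for 24 h at 37 °C with an 11-point 3-fold compound dilution series (top final concentration 10 uM, DMSO ≤0.25%). After lysis, one-step TaqMan RT-qPCR quantified junction transcripts, normalized to PPIA for A673 or to GAPDH/GUSB for K562.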

[2] = system: SMN2 mRNA; test: RT-qPCR splicing assay, SMN2 canonical junction (CJ) mRNA; format: cell-based, human; conditions: Homo sapiens
Protocol: The expression of a target mRNA was measured by detecting the formation of an exon-exon junction in the canonical transcript (CJ). A compound mediated exon-inclusion event was detected by observing an increase in formation of a new junction with an alternative exon (AJ). Real-time qPCR assays were used to detect these splicing switches and interrogate the potency of various compounds towards different target genes. A high-throughput real time quantitative PCR (RT-qPCR) assay was developed to measure these two isoforms of the mRNA (CJ and AJ) for exemplary genes, such as HTT, SMN2, and MYB, together with a control housekeeping gene, GAPDH or GUSB or PPIA, used for normalization. Briefly, the A673 or K562 cell line was treated with various compounds described herein (e.g., compounds of Formula (I)). After treatment, the levels of the HTT, MYB, or SMN2 mRNA targets were determined from each sample of cell lysate by cDNA synthesis followed by qPCR.
The A673 cell line was cultured in DMEM with 10% FBS. Cells were diluted with full growth media and plated in a 96-well plate (15,000 cells in 100 ul media per well). The plate was incubated at 37° C. with 5% CO2 for 24 hours to allow cells to adhere. An 11-point 3-fold serial dilution of the compounds was made in DMSO then diluted in media in an intermediate plate. Compounds were transferred from the intermediate plate to the cell plate with the top dose at a final concentration of 10 uM in the well. Final DMSO concentration was kept at or below 0.25%. The cell plate was returned to the incubator at 37° C. with 5% CO2 for an additional 24 hours.
The K562 cell line was cultured in IMDM with 10% FBS. For K562, cells were diluted with full growth media and plated in either a 96-well plate (50,000 cells in 50 uL media per well) or a 384-well plate (8,000-40,000 cells in 45 uL media per well). An 11-point 3-fold serial dilution of the compounds were made in DMSO then diluted in media in an intermediate plate. Compound was transferred from the intermediate plate to the cell plate with the top dose at a final concentration of 10 uM in the well. Final DMSO concentration was kept at or below 0.25%. Final volume was 100 uL for 96-well plate and 50 uL for 384-well plate. The cell plate was then placed in an incubator at 37° C. with 5% CO2 for 24 hours.
The cells were then gently washed with 50 uL-100 uL cold PBS before proceeding to addition of lysis buffer. 30 uL-50 uL of room temperature lysis buffer with DNAse I (and optionally RNAsin) was added to each well. Cells were shaken/mixed thoroughly at room temperature for 5-10 minutes for lysis to take place and then 3 uL-5 uL of room temperature stop solution was added and wells were shaken/mixed again. After 2-5 minutes, the cell lysate plate was transferred to ice for RT-qPCR reaction setup. The lysates could also be frozen at −80° C. for later use.
In some cases, a direct lysis buffer was used. An appropriate volume of 3× lysis buffer (10 mM Tris, 150 mM NaCl, 1.5%-2.5% Igepal and 0.1-1 U/uL RNAsin, pH 7.4) was directly added to either K562 or A673 cells in media and mixed by pipetting 3 times. The plates were then incubated at room temperature with shaking/rocking for 20-50 minutes to allow for lysis to take place. After this time, the cell lysate plate was transferred to ice to set up for the RT-qPCR reactions. The lysates could also be frozen at −80° C. for later use.
To set up 10 uL RT-qPCR reactions, cell lysates were transferred to 384-well qPCR plates containing the master mix according to the table below. The plates were sealed, gently vortexed, and spun down before the run. The volumes were adjusted accordingly in some instances where the reaction was carried in 20 uL. The table below summarizes the components of the RT-qPCR reactions:
The RT-qPCR reaction was performed using a QuantStudio (ThermoFisher) under the following fast cycling conditions.

[3] = system: HTT mRNA; test: RT-qPCR splicing assay, HTT canonical junction (CJ) and alternative junction (AJ) mRNA; format: cell-based, human; conditions: Homo sapiens; for AC50: increase in HTT alternative junction (AJ) mRNA, read-out: HTT AJ AC50
Summary of the method: as §1

[4] = system: Target C; test: RT-qPCR splicing assay panel, Target C canonical junction (CJ) mRNA; format: cell-based, human; conditions: Homo sapiens
Summary of the method: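 A673 or K562 cells were treated for 24 h at 37 °C with compound in 11-point 3-fold dilution (top 10 uM final, DMSO ≤0.25%). Lysates then went to one-step RT-qPCR measuring canonical-junction mRNA, normalized to GAPDH, GUSB or PPIA.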

[5] = system: K562 (human chronic myelogenous leukemia) cells; test: Cell Titer Glo 2.0 cell viability assay; format: cell-based; conditions: Homo sapiens, K562, 72 h, K562 cells, 72 hours, Cell Titer Glo 2.0; read-out: K562 GI50
[6] = Table 5 panel, canonical junction qPCR, compound concentration having 50% response in CJ decrease, read-out: MYB IC50 (decrease in CJ mRNA levels)
[7] = decrease in MYB canonical junction (CJ) mRNA, RT-qPCR, read-out: MYB CJ IC50
[8] = Table 5 panel, canonical junction qPCR, compound concentration having 50% response in CJ decrease, read-out: SMN2 IC50 (decrease in CJ mRNA levels)
[9] = decrease in HTT canonical junction (CJ) mRNA, RT-qPCR, read-out: HTT CJ IC50
[10] = Table 5 panel, canonical junction qPCR, compound concentration having 50% response in CJ decrease, read-out: HTT IC50 (decrease in CJ mRNA levels)
[11] = Table 5 panel, canonical junction qPCR, compound concentration having 50% response in CJ decrease, read-out: Target C IC50 (decrease in CJ mRNA levels)
[12] = canonical junction qPCR panel, Table 5, read-out: MYB (decrease in CJ mRNA levels, IC50)
[13] = canonical junction qPCR panel, Table 5, read-out: SMN2 (decrease in CJ mRNA levels, IC50)
[14] = canonical junction qPCR panel, Table 5, read-out: HTT (decrease in CJ mRNA levels, IC50)
[15] = canonical junction qPCR panel, Table 5, read-out: Target C (decrease in CJ mRNA levels, IC50)

| SMILES | IC50 [1, 6] | IC50 [1, 7] | AC50 ([1]; RT-qPCR) | IC50 [2, 8] | IC50 [3, 9] | AC50 ([3]; RT-qPCR) | IC50 [3, 10] | IC50 [4, 11] | IC50 [1, 12] | IC50 [2, 13] | IC50 [3, 14] | IC50 [4, 15] | GI50 [5] |
| --- | --- | --- | --- | --- | --- | --- | --- | --- | --- | --- | --- | --- | --- |
| Cc1cn2nc(-c3cc(F)c4c(=O)n(C56CCC(N)(CC5)C6)ccc4c3)cc(C)c2n1 [Compound 655] | < 100 nM | 100 to 1000 nM | < 100 nM | < 100 nM | 1000 to 10000 nM | 100 to 1000 nM | 100 to 1000 nM | 1000 to 10000 nM | – | – | – | – | – |
| Cc1cn2cc(-c3cc(F)c4c(=O)n([C@H]5CC[C@@H](N(C)C)CC5)ccc4c3)cc(F)c2n1 [Compound 656] | < 100 nM | < 100 nM | < 100 nM | < 100 nM | 100 to 1000 nM | 100 to 1000 nM | 100 to 1000 nM | 100 to 1000 nM | – | – | – | – | – |
| Cn1cc2cc(-c3ccc4c(=O)n(C5CCNCC5)ccc4n3)c(O)c(C#N)c2n1 [Compound 1283] | – | 100 to 1000 nM | 100 to 1000 nM | – | 100 to 1000 nM | 100 to 1000 nM | – | – | 100 to 1000 nM | < 100 nM | 100 to 1000 nM | 1000 to 10000 nM | – |
| Cc1cn2nc(-c3ccc4c(=O)n([C@@H]5CCNC6(CC6)C5)ncc4n3)cc(C)c2n1 [Compound 1298] | – | 100 to 1000 nM | 100 to 1000 nM | – | < 100 nM | < 100 nM | – | – | 100 to 1000 nM | < 100 nM | < 100 nM | 100 to 1000 nM | – |
| Cc1c(O)c(-c2ncc3c(=O)n([C@@H]4CCNC(C)(C)C4)ccc3n2)cc2cn(C)nc12 [Compound 1435] | – | 100 to 1000 nM | 100 to 1000 nM | – | 1000 to 10000 nM | 1000 to 10000 nM | – | – | 100 to 1000 nM | < 100 nM | 1000 to 10000 nM | > 10000 nM | 100 to 1000 nM |
| Cc1c(O)c(-c2ncc3c(=O)n([C@H]4C[C@H]5COC[C@@H](C4)N5)ccc3n2)cc2cn(C)nc12 [Compound 1472] | – | 100 to 1000 nM | 100 to 1000 nM | – | 1000 to 10000 nM | 1000 to 10000 nM | – | – | 100 to 1000 nM | 100 to 1000 nM | 1000 to 10000 nM | 1000 to 10000 nM | 1000 to 10000 nM |
| Cc1c(O)c(-c2ncc3c(=O)n([C@H]4CC[C@@H](N)C4)ccc3n2)cc2cn(C)nc12 [Compound 1473, 6-[(1S,3R)-3-aminocyclopentyl]-2-(6-hydroxy-2,7-dimethyl-indazol-5-yl)pyrido[4,3-d]pyrimidin-5-one] | – | 100 to 1000 nM | 100 to 1000 nM | – | > 10000 nM | 1000 to 10000 nM | – | – | 100 to 1000 nM | < 100 nM | 1000 to 10000 nM | 1000 to 10000 nM | 100 to 1000 nM |
| C[C@@H]1C[C@H](n2ccc3nc(-c4cc5cn(C)nc5cc4O)ncc3c2=O)CCN1 [Compound 1474] | – | 1000 to 10000 nM | 100 to 1000 nM | – | 1000 to 10000 nM | 1000 to 10000 nM | – | – | 100 to 1000 nM | < 100 nM | 1000 to 10000 nM | 1000 to 10000 nM | 100 to 1000 nM |
| Cc1cn2cc(-c3ccc4c(=O)n([C@@H]5CCN[C@H](C)C5)ccc4n3)cc(F)c2n1 [Compound 1475] | – | 1000 to 10000 nM | 1000 to 10000 nM | – | > 10000 nM | 1000 to 10000 nM | – | – | 1000 to 10000 nM | 100 to 1000 nM | 1000 to 10000 nM | 1000 to 10000 nM | 1000 to 10000 nM |
| CN[C@H]1CC[C@@H](n2ccc3nc(-c4cc5cn(C)nc5c(C)c4O)ncc3c2=O)C1 [Compound 1478, 2-(6-hydroxy-2,7-dimethyl-indazol-5-yl)-6-[(1R,3S)-3-(methylamino)cyclopentyl]pyrido[4,3-d]pyrimidin-5-one] | – | 100 to 1000 nM | 100 to 1000 nM | – | 1000 to 10000 nM | 1000 to 10000 nM | – | – | 100 to 1000 nM | < 100 nM | 1000 to 10000 nM | 1000 to 10000 nM | 100 to 1000 nM |
| Cc1cn2cc(-c3ncc4c(=O)n([C@@H]5C[C@@H](C)N[C@@H](C)C5)ccc4n3)cc(F)c2n1 [Compound 1480, 6-[(2R,6S)-2,6-dimethyl-4-piperidyl]-2-(8-fluoro-2-methyl-imidazo[1,2-a]pyridin-6-yl)pyrido[4,3-d]pyrimidin-5-one] | – | 100 to 1000 nM | 100 to 1000 nM | – | 100 to 1000 nM | 100 to 1000 nM | – | – | 100 to 1000 nM | 100 to 1000 nM | 100 to 1000 nM | 100 to 1000 nM | 100 to 1000 nM |
